In article PMC5770958, “Dual Action of Mexiletine and Its Pyrroline Derivatives as Skeletal Muscle Sodium Channel Blockers and Anti-oxidant Compounds: Toward Novel Therapeutic Potential” (Frontiers in Pharmacology, 2018):
Values joined by “and” are separate entries in the source; they are usually repeats but may differ in a detail not shown here. Equal values may be shown once. “Also recorded” adds a separate entry of the source. Read-outs that look alike come from different tables or passages of the source.

Key:
[1] = Ionization constants and lipophilicity (Sirius GLpKa analyzer); assay type: physicochemical; conditions: for pKa: amine group of the drugs; for logD: pH 7.4, calculated from LogP and pKa values, read-out: Log D7.4
Description: (§1) The h∞ curves have been fitted with a single Boltzmann, and the potential at which 50% of the sodium channels were inactivated (Vh1/2) was calculated at the inflection point of the curves. Statistical significance of differences between pairs of mean values has been estimated by unpaired Student's t-test and considered significant for p < 0.05. Two-way ANOVA and Bonferroni post-hoc corrections have been used for multiple comparison of experimental data means. The statistical significance between IC50 values obtained from the fit was evaluated using a number of degrees of freedom equal to the total number of preparations determining each point of the curve minus the number of means determining the curve minus two for the free parameters. The measurements of ionization constants and lipophilicity were performed on a Sirius GLpKa analyzer for pH-metric pKa and LogP (Sirius Analytical Instruments Ltd-Forest Row-UK). Correlation analysis was evaluated by fitting the experimental data point to linear regression analysis. Nonlinear equation fitting and processing for data graphics were done by FigP Software (Biosoft, Cambridge, UK).

C2C12 cells [2] = assay: Cyto-protective effect against H2O2-induced oxidative stress (CCK-8); assay type: cell-based, Murine; conditions: for Cyto-protective effect: C2C12, 300 μM H2O2, drug 0.1-30 μM, 2 h before H2O2 plus 6 h
Description: (§2) Murine C2C12 skeletal muscle cells were cultured in DMEM supplemented with 10% fetal bovine serum, 1% penicillin, 1% streptomycin and 1% glutamine and were maintained at 37°C in 5% CO2/95% air. Cells obtained by sub-confluent cultures (about 70%) were seeded in 96 multiwell plate at a density of approximately 4.5 × 10^3 cells per well. Eighteen hours after seeding, either the cytotoxic effect of H2O2, mexiletine, Me5, their tetramethyl-pyrroline derivatives, and PP2 or the potential protective effect of all above mentioned compounds and N-acetyl cysteine (NAC) against the H2O2-induced oxidative stress has been investigated. […] To evaluate the cyto-protective effect of the drugs, C2C12 cells were incubated with the test compounds 2 h before the application of H2O2 at 300 μM and 1 mM, and then maintained for additional 6h. Two hours before absorbance lecture, 10 μl of Cell Counting Kit-8 pure solution (CCK-8 Alexis Biochemicals) was added into each well. The CCK-8 solution contains the monosodium salt of [2-(2-methoxy-4-nitrophenyl)-3-(4-nitrophenyl)-5-(2,4-disulfophenyl)-2H-tetrazolium (WST-8), which is reduced by cellular dehydrogenases to give a yellow colored product (formazan) absorbing at 450 nm. The quantity of formazan dye is directly proportional to the number of viable cells. Absorbance was measured at 450 nm with a microplate spectrophotometer (Victor V31420-40, PerkinElmer). This assay was successfully used to investigate on the mechanism of ion channel-regulated cell proliferation in cell lines (Tricarico et al., [2013]).
Fresh stock solutions of the test compounds were made daily and diluted in DMEM as required. Only for the tetramethyl-pyrroline derivatives and PP2, stock solutions in DMSO were prepared and then diluted in DMEM. The maximal concentration of DMSO in the diluted solutions was <0.2%. As expected, 0.2% DMSO had no effect on cell survival (data not shown). Accordingly, cell viability in the presence of drugs was expressed as percent change with respect to the cell treated with vehicle alone, after proper subtraction of blank absorbance.

[3] = test system: skeletal-muscle sodium channels (NaV1.4); assay: Voltage-clamp recordings of INa in single muscle fibers: tonic block and use-dependent block; assay type: cell-based, Rana Esculenta; conditions: for IC50: HP -100 mV to -20 mV; for BT/BUD (IC50 TB/IC50 UDB 10-Hz): ratio tonic to 10-Hz use-dependent block
C2C12 cells [4] = assay: Cell culture cytotoxicity assay (CCK-8), 8 h incubation; assay type: cell-based, Murine
Description: as §2, with “The CCK-8 solution contains the monosodium salt of [2-(2-methoxy-4-nitrophenyl)-3-(4-nitrophenyl)-5-(2,4-disulfophenyl)-2H-tetrazolium (WST-8), which is reduced by cellular dehydrogenases to give a yellow colored product (formazan) absorbing at 450 nm.” left out, “This assay was successfully used to investigate on the mechanism of ion channel-regulated cell proliferation in cell lines (Tricarico et al., [2013]).” left out
(§3) Fresh stock solutions of the test compounds were made daily and diluted in DMEM as required. […] Accordingly, cell viability in the presence of drugs was expressed as percent change with respect to the cell treated with vehicle alone, after proper subtraction of blank absorbance.
(§4) All data were expressed as mean ± S.E.M. The IC50 values, in the various experimental conditions, were determined by using a non-linear least squares fit of the concentration-response curves to the following logistic equation: Effect = −100/{1+(K/[drug])n}, where Effect is the percentage change of INa; −100 is the maximal percentage block of INa; K is IC50; n is the logistic slope factor, and [drug] is the molar concentration of the compound (Talon et al., [2001]). […] The h∞ curves have been fitted with a single Boltzmann, and the potential at which 50% of the sodium channels were inactivated (Vh1/2) was calculated at the inflection point of the curves. […]

[5] = test system: skeletal-muscle sodium channels (NaV1.4); assay: Steady-state inactivation (h∞) curves of sodium channels; assay type: cell-based, Rana Esculenta; conditions: for Shift in the h∞ curves toward more negative potentials: 10 μM; for Vh1/2: 10 μM drug
Description: Steady-state inactivation (h∞) curves were determined by a cyclic protocol of pulse sequences.
as §1
Fig. S2: Steady-state inactivation (h∞) curves were determined by a cyclic protocol of pulse […]
duration, and a test pulse to -20 mV for 10ms; after a pause of 3 s, the sequence was repeated 18-20 times with the prepulse potential value increased each time in 5 mV steps. A more quantitative estimate of the absolute affinity constant for the inactivated state (Ki) was obtained from the voltage dependent distribution of the channels in the resting (h) and inactivated state (1-h) obtained from […]

[6] = test system: skeletal-muscle sodium channels (NaV1.4); assay: Recovery from inactivation of drug-bound sodium channels; open channel block check; assay type: cell-based, Rana Esculenta; conditions: 3 and 10 μM
[7] = test system: skeletal-muscle sodium channels (NaV1.4); assay: Voltage-dependent block of INa at HP -140 and -70 mV (resting and inactivated state affinity); assay type: cell-based, Rana Esculenta; conditions: for IC50: 0.3-Hz; for Ki: computed from Kr, K-70 and h∞ curve, read-out: Inactivated state block, calculated Ki
Description: The cut-end fiber was then bathed in an internal solution and mounted across three chamber partitions, which delineated four pools. Three strips of vaseline were applied over the fiber and carefully sealed to the fiber to reduce leakage. […] Four KCl/agar bridges electrodes connected the recording chamber to the voltage-clamp amplifier based on methods described by Hille and Campbell ([1976]). For recording sodium currents (INa), the solution in the pool A was replaced with the external solution and after about 10 min of equilibration the recordings were performed at 10°C. […] Particular care was taken to verify that no change occurred in the membrane area in pool A throughout the experiments. Sodium currents were recorded using an amplifier connected via a A/D and D/A Digidata 1,200 Interface (Axon) to a 486 DX2/66 personal computer and stored on the hard disk. The stimulation protocols and data acquisition were controlled by Clampex software (pClamp6; Axon Instruments, Foster City, CA, USA) (Mele et al., [2014]). The currents flowing in response to depolarizing command voltages were low pass filtered at 10 kHz (Frequency Devices, Haverhill, MA, USA), visualized on an oscilloscope and sampled at 20 kHz. When necessary, leak and capacities currents were subtracted by P/4 method. The acquired traces were analyzed offline using Clampfit software (pClamp6; Axon Instruments). […] The degree of use-dependent block was computed as the value of the steady-state INa, max at this point normalized to the current at the same point in the absence of drug. This parameter reflects the potency of the drug for blocking the channels under conditions of high-frequency stimulation (i.e., as occurs during myotonic action potential firing) (De Luca et al., [2003a],[b]). […] The concentration-dependence of the drug effect was calculated as the half-maximal blocking concentration (IC50) at −140 mV, which allowed calculation of the affinity constant for the resting state (Kr). […] The affinity constant of the drug for the inactivated channel (Ki) was the computed as described below. Steady-state inactivation (h∞) curves were determined by a cyclic protocol of pulse sequences. […] Muraglia et al., [2014]). All data were expressed as mean ± S.E.M. The IC50 values, in the various experimental conditions, were determined by using a non-linear least squares fit of the concentration-response curves to the following logistic equation: […] K is IC50; n is the logistic slope factor, and [drug] is the molar concentration of the compound (Talon et al., [2001]). […] Statistical significance of differences between pairs of mean values has been estimated by unpaired Student's t-test and considered significant for p < 0.05. Two-way ANOVA and Bonferroni post-hoc corrections have been used for multiple comparison of experimental data means. The statistical significance between IC50 values obtained from the fit was evaluated using a number of degrees of freedom equal to the total number of preparations determining each point of the curve minus the number of means determining the curve minus two for the free parameters. The measurements of ionization constants and lipophilicity were performed on a Sirius GLpKa analyzer for pH-metric pKa and LogP (Sirius Analytical Instruments Ltd-Forest Row-UK). Correlation analysis was evaluated by fitting the experimental data point to linear regression analysis. Nonlinear equation fitting and processing for data graphics were done by FigP Software (Biosoft, Cambridge, UK).

[8] = Cell culture cytotoxicity assay (CCK-8), 8 h incubation; assay type: cell-based, Murine; conditions: mouse, C2C12 skeletal muscle cells, 8 h of incubation, read-out: Cytotoxic effect IC50
Description: as §2, with “The CCK-8 solution contains the monosodium salt of [2-(2-methoxy-4-nitrophenyl)-3-(4-nitrophenyl)-5-(2,4-disulfophenyl)-2H-tetrazolium (WST-8), which is reduced by cellular dehydrogenases to give a yellow colored product (formazan) absorbing at 450 nm.” left out, “This assay was successfully used to investigate on the mechanism of ion channel-regulated cell proliferation in cell lines (Tricarico et al., [2013]).” left out
as §3, §4

[9] = 0.3-Hz, 10°C, read-out: Tonic block IC50
[10] = 10-Hz trains, read-out: Use-dependent block 10-Hz IC50
[11] = HP -70 mV, read-out: Voltage-dependent block HP-70 mV IC50, K-70
[12] = HP -140 mV, resting state, read-out: Voltage-dependent block HP-140 mV IC50, Kr

Row | Compound | logP [1] | pKa [1] | logD [1] | Cyto-protective effect (C2C12 cells [2]) | IC50 [3, 9] | IC50 [3, 10] | IC50 [7, 11] | IC50 [7, 12] | Ki [7] | also measured
1 | Cc1cccc(C)c1OCC(N)C(C)C (stereo not drawn) [Me5, 1-(2,6-dimethylphenoxy)-3-methyl-2-butanamine] | 2.72 ± 0.02 | 8.97 ± 0.03 | 1.1 ± 0.1 | moderate, albeit significant, cyto-protective effect |  |  |  |  |  | 
2 | Cc1cccc(C)c1OC[C@H](C)N [S-Mex, reference compound] |  |  |  |  | 127 ± 2.8 µM | 32 ± 7 µM |  |  |  | 
3 | OO [H2O2] |  |  |  |  |  |  |  |  |  | IC50 (C2C12 cells [4]; 8 h of incubation, read-out: Cytotoxic effect IC50): 292 ± 25 µM
4 | CC(C)(C)n1nc(-c2ccc(Cl)cc2)c2c(N)ncnc21 [PP2] |  |  |  |  |  |  |  |  |  | Cytotoxicity compared with Mex and its analogs (C2C12 cells [4]; 10-100 μM): more cytotoxic than Mex and its analogs
5 | Cc1cccc(C)c1OCC(NC(=O)C1=CC(C)(C)NC1(C)C)C(C)C (stereo not drawn) [CI16, N-{1-[(2,6-dimethylphenoxy)methyl]-2-methylpropyl}-2,2,5,5-tetramethyl-2,5-dihydro-1H-pyrrole-3-carboxamide] | 3.2 ± 0.3 | 8.53 ± 0.01 | 2.1 ± 0.1 | remarkable cyto-protection; also recorded: a decrease in efficacy | 12.6 ± 0.2 µM | 0.6 ± 0.1 µM | 1.8 ± 0.4 µM | 7.7 ± 0.5 µM | 1.8 µM | Shift in the h∞ curves toward more negative potentials [5]: 6.3 ± 1.1 mV; Vh1/2 [5]: -83.7±0.1 mV; Fold more potent than Me5, tonic block ([3]; Me5 ref De Luca et al., 2000): ~2 fold; Fold more potent than Me5, use-dependent block ([3]; Me5 ref De Luca et al., 2000): ~9 fold; BT/BUD (IC50 TB/IC50 UDB 10-Hz) [3]: 21; Time constants for recovery from inactivation [6]: slowest time constants
6 | Cc1cccc(C)c1OCC(C)NC(=O)C1=CC(C)(C)NC1(C)C (stereo not drawn) [VM11, N-[2-(2,6-dimethylphenoxy)-1-methylethyl]-2,2,5,5-tetramethyl-2,5-dihydro-1H-pyrrole-3-carboxamide] | 2.8 ± 0.1 | 8.5 ± 0.1 | 1.7 ± 0.1 | remarkable cyto-protection; also recorded: maintained the same cyto-protection observed between 3 and 30 μM | 23.4 ± 0.9 µM | 2 ± 0.1 µM | 4.5 ± 0.1 µM | 15.5 ± 0.6 µM | 4.2 µM | Shift in the h∞ curves toward more negative potentials [5]: 3.6 ± 1.1 mV; Vh1/2 [5]: -82±0.3 mV; BT/BUD (IC50 TB/IC50 UDB 10-Hz) [3]: 11.7 and 12; R (IC50 of Mex / IC50 of compound), use-dependent block 10-Hz ([3]; relative potency toward Mex, racemic form): 12; Cell protection (C2C12 cells [2]; C2C12, 300 μM H2O2, drug 100 μM): 43.5 ± 2.03%
7 | Cc1cccc(C)c1OC[C@@H](C)N [R-Mex, reference compound] |  |  |  |  | 74 ± 8 µM | 31 ± 8 µM |  |  |  | 
8 | Cc1cccc(C)c1OCC(C)N (stereo not drawn) [Mex, 2-(2,6-dimethylphenoxy)-1-amino-propanemethylethylamine, reference compound] |  |  |  | moderate, albeit significant, cyto-protective effect | 75.3 ± 8 µM | 23.6 ± 2.8 µM | 1.9 ± 0.2 µM | 148 ± 20 µM | 2 µM | R (IC50 of Mex / IC50 of compound), tonic block [3]: 1; R (IC50 of Mex / IC50 of compound), use-dependent block 10-Hz [3]: 1; IC50 at 8 h [8]: 775 ± 88 µM
